# According to patent publication US7132420B2, “Aspartic protease inhibitors” (The United States of America as represented by the …, priority 1999, dated 2006):
# Like-named read-outs stand apart in the source and are kept apart here.
# Tests used:
# cathepsin D = cathepsin D (Homo sapiens, UniProt P07339); assay: cathepsin D assay (Ki); format: biochemical; conditions: Table 2; read-out: Cath D Ki
# Text: (§1) The HIV protease assay was done according to the protocol described in Example 35. The plasmepsin II assay was done according to the protocol used in Silva et al., Proc. Nat. Acad. Sci. USA, 93, pp. 10034–10039, September 1996 (Biochemstry). The cathepsin D assay was done according to the protocol described in Gulnik et al., FEBS Letters, 413, 379–384 (1997). The compounds illustrated in Table 2 are of the general formula (II), as described in Example 35.
# plasmepsin II = plasmepsin II (Plasmodium falciparum, UniProt P46925); assay: biochemical; format: biochemical; conditions: Table 2; read-out: Pls II Ki
# Chain of plasmepsin II (P46925 125-453): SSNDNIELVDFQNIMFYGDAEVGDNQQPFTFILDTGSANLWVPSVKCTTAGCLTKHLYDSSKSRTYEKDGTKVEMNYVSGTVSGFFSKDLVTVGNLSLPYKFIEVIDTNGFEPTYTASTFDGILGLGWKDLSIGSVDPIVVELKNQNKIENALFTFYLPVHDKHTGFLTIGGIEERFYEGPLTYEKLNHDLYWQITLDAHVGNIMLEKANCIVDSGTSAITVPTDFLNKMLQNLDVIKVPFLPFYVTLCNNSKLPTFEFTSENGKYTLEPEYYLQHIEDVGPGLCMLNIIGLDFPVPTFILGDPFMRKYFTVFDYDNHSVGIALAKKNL
# Text: as §1
# HIV-1 protease = HIV-1 protease (Human immunodeficiency virus type 1 group M subtype B, UniProt P04585); assay: HIV protease assay (Ki); format: biochemical; conditions: for HIV-1 protease % inhibition: Table 1 Ki column
# Text: (§2) This example illustrates the HIV-1 protease inhibition activity (Ki), HIV-1 antiviral data (EC50), and the toxicity against normal cells (IC50), for particular compounds of formula (I). The HIV protease assay was done according to the protocol described in Kageyama et al, Antimicrob. Agents Chemother., 37, 272 (1993). The HIV antiviral assay was done according to the protocol described in Weislow et al., J. National Cancer Inst. 81, 577 (1989).
# as §1
# HIV-1 = assay: HIV antiviral assay (EC50); format: cell-based
# Text: The HIV protease assay was done according to the protocol described in Kageyama et al, Antimicrob. Agents Chemother., 37, 272 (1993). The HIV antiviral assay was done according to the protocol described in Weislow et al., J. National Cancer Inst. 81, 577 (1989).
# normal cells = assay: toxicity against normal cells (IC50); format: cell-based
# Text: as §2
# [1] = Table 1, in nM, read-out: HIV-1 Ki
# Chain of cathepsin D (P07339 65-412): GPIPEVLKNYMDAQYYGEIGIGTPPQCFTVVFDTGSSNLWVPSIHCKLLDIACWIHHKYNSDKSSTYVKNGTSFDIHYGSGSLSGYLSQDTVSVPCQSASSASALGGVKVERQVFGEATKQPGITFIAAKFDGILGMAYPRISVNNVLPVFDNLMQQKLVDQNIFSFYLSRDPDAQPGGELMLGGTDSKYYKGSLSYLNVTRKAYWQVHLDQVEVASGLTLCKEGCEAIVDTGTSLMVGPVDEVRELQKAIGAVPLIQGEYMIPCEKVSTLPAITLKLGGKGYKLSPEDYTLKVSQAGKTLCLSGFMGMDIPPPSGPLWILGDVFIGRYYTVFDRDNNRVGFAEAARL
smiles,measurement,setting,value
"Cc1cccc(C)c1OCC(=O)N[C@@H](Cc1ccccc1)[C@@H](O)C[C@H](CC(C)C)NC(=O)OC(C)(C)C [(15), (2S,3S,5S)-5-[N-tert-butyloxycarbonylamino]-2-[N-[2-(2,6-dimethylphenoxy)acetyl]amino]-3-hydroxy-7-methyl-1-phenyloctane]",Ki,cathepsin D,6.1 nM
same,Ki,plasmepsin II,210 nM
same,Ki,HIV-1 protease,0.009 nM
same,Ki,"HIV-1 protease; read-out: HIV-1 Ki, Table 2",0.009 nM
CC(C)C[C@@H](C[C@H](O)[C@H](Cc1ccccc1)NC(=O)OCc1ccccc1)NC(=O)[C@H](C(C)C)N1CCCNC1=O [(18)],EC50,HIV-1; Table 1,600 nM
same,Ki,"HIV-1 protease; Table 1, read-out: HIV-1 Ki",0.065 ± 0.016 nM
same,IC50,normal cells; Table 1,> 100000 nM
"Cc1cccc(C)c1OCC(=O)N[C@@H](Cc1ccccc1)[C@@H](O)C[C@H](Cc1ccccc1)NC(=O)[C@H](C(C)C)N1CCCNC1=O [(24), reference compound]",Ki,cathepsin D,1960 nM
same,Ki,plasmepsin II,3500 nM
same,EC50,HIV-1; Table 1,41 nM
same,EC50,HIV-1; Table 2,41 nM
same,Ki,"HIV-1 protease; Table 1, read-out: HIV-1 Ki",0.013 nM
same,Ki,"HIV-1 protease; Table 2, read-out: HIV-1 Ki",0.012 nM
same,IC50,normal cells; Table 1,> 100000 nM
same,IC50,normal cells; Table 2,> 100000 nM
Cc1cccc(C)c1OCC(=O)N[C@@H](Cc1ccccc1)[C@@H](O)C[C@H](CC(C)C)NC(=O)N1CCOCC1 [(27)],Ki,cathepsin D,6.1 nM
same,Ki,plasmepsin II,76 nM
same,EC50,HIV-1; Table 1,> 50000 nM
same,EC50,HIV-1; Table 2,> 50000 nM
same,Ki,HIV-1 protease; [1],37 nM
same,Ki,"HIV-1 protease; Table 2, read-out: HIV-1 Ki",0.37 nM
"Cc1cccc(C)c1OCC(=O)N[C@@H](Cc1ccccc1)[C@@H](O)C[C@H](CC(C)C)NC(=O)[C@@H]1CCNC(=O)N1 [(29), (2S,3S,5S)-2-[N-[2-(2,6-dimethylphenoxy)acetyl]amino]-5-[N-[2S-(2-oxopyrimidinyl)-4-carbonyl]amino]-3-hydroxy-7-methyl-1-phenyloctane]",Ki,cathepsin D,305 nM
same,Ki,plasmepsin II,3500 nM
same,HIV-1 EC50 (μM),HIV-1; Table 1,in-active
same,HIV-1 EC50 (μM),HIV-1; Table 2,notactive
same,Ki,HIV-1 protease; [1],16 nM
same,Ki,"HIV-1 protease; Table 2, read-out: HIV-1 Ki",0.16 nM
CC(C)C[C@@H](C[C@H](O)[C@H](Cc1ccccc1)NC(=O)OCc1ccccc1)NC(=O)[C@@H](C(C)C)N1CCCNC1=O [(33)],HIV-1 protease % inhibition,HIV-1 protease; @0.5 μM,38%
same,HIV-1 protease % inhibition,HIV-1 protease; @1 μM,65%
CC(C)C[C@@H](C[C@H](O)[C@H](Cc1ccccc1)NC(=O)N1CCOCC1)NC(=O)[C@H](C(C)C)N1CCCNC1=O [(36)],EC50,HIV-1; Table 1,2000 nM
same,Ki,"HIV-1 protease; Table 1, read-out: HIV-1 Ki",0.571 nM
same,IC50,normal cells; Table 1,> 100000 nM
"Cc1c(O)cccc1C(=O)N[C@@H](Cc1ccccc1)[C@@H](O)C[C@H](CC(C)C)NC(=O)[C@H](C(C)C)N1CCCNC1=O [(37), (2S,3S,5S)-2-[N-(3-hydroxy-2-methylbenzoyl)amino]-5-[N-[[3-methyl-2S-(2-oxo-tetrahydropyrimidin-1-yl)]butyryl]amino]-3-hydroxy-7-methyl-1-phenyloctane]",EC50,HIV-1; Table 1,200 nM
same,Ki,"HIV-1 protease; Table 1, read-out: HIV-1 Ki",0.104 ± 0.01 nM
same,IC50,normal cells; Table 1,> 10000 nM
"Cc1cccc(C)c1OCC(=O)N[C@@H](CC(C)C)C[C@H](O)[C@H](Cc1ccccc1)NC(=O)OCc1ccccc1 [(40), (2S,3S,5S)-2-[N-(benzyloxycarbonyl)amino]-5-[N-[2-(2,6-dimethylphenoxy)acetyl]amino]-3-hydroxy-7-methyl-1-phenyloctane]",HIV-1 EC50 (μM),HIV-1; Table 1,inactive
same,Ki,"HIV-1 protease; Table 1, read-out: HIV-1 Ki",0.197 nM
"Cc1cccc(C)c1OCC(=O)N[C@@H](CC(C)C)C[C@H](O)[C@H](Cc1ccccc1)NC(=O)O[C@H]1CCOC1 [(41), (2S,3S,5S)-5-[N-[2-(2,6-dimethylphenoxy)acetyl]amino]-2-[N-(3S-terahydrofuranyloxycarbonyl]amino]-3-hydroxy-7-methyl-1-phenyloctane]",EC50,HIV-1; Table 1,> 1000 nM
same,Ki,"HIV-1 protease; Table 1, read-out: HIV-1 Ki",0.222 nM
same,IC50,normal cells; Table 1,> 100000 nM
"Cc1cccc(C)c1OCC(=O)N[C@@H](CC(C)C)C[C@H](O)[C@H](Cc1ccccc1)NC(=O)c1cccc(O)c1C [(42), (2S,3S,5S)-5-[N-[2-(2,6-dimethylphenoxy)acetyl]amino]-2-[N-(3-hydroxy-2-methylbenzoyl)amino]-3-hydroxy-7-methyl-1-phenyloctane]",EC50,"HIV-1; Human immunodeficiency virus 1, Table 1",750 nM
same,Ki,HIV-1 protease,0.311 nM
same,IC50,normal cells; Table 1,> 100000 nM
CC(C)CC(CC(O)C(Cc1ccccc1)NC(=O)C(C(C)C)N1CCCNC1=O)NC(=O)OC(C)(C)C (centres unmarked) [(44)],HIV-1 EC50 (μM),HIV-1; Table 1,in-active
same,Ki,"HIV-1 protease; Table 1, read-out: HIV-1 Ki",1.49 nM
Cc1cccc(C)c1OCC(=O)N[C@@H](Cc1ccccc1)[C@@H](O)C[C@H](CC(C)C)NC(=O)C1CCCN(C(=O)OCc2ccccc2)C1 (some centres unmarked) [(47)],Ki,"HIV-1 protease; Table 1, read-out: HIV-1 Ki",1.5 ± 0.066 nM
Cc1cccc(C)c1OCC(=O)N[C@@H](Cc1ccccc1)[C@@H](O)C[C@H](CC(C)C)NC(=O)C1CCN(C(=O)OCc2ccccc2)CC1 [(48)],Ki,HIV-1 protease; [1],113 nM
Cc1cccc(C)c1OCC(=O)N[C@@H](Cc1ccccc1)[C@@H](O)C[C@H](CC(C)C)NC(=O)[C@@H](N)C(C)C [(49)],EC50,HIV-1; Table 1,8000 nM
same,Ki,HIV-1 protease; [1],4 nM
same,IC50,normal cells; Table 1,> 100000 nM
